{
  "source": "patent US20220054588A1",
  "about": "“USE OF SAP FOR THE TREATMENT OF EUROTIOMYCETES FUNGI INFECTIONS” (HUMANITAS MIRASOLE S.P.A., priority 2018, published 2022)",
  "system": "A. fumigatus",
  "assay": "Therapy of invasive aspergillosis in cyclophosphamide-immunosuppressed mice (survival, lung CFU)",
  "format": "in vivo",
  "details": "for MST / survival: 4 mg/Kg i.p. at 2 and 24 h; for survival: cyclophosphamide-treated mice",
  "procedure": "FIG. 12 depicts the therapeutic efficacy of SAP in treatment of invasive aspergillosis. a) b) c) survival of transiently immunosuppressed wt mice after injection with the indicated doses of AF conidia. The curve of untreated mice (n=3) with cyclophosphamide is also shown (a). Human SAP (4 mg/Kg) was injected at 2 h and 24 h after infection. a) AF 5.10^7, n=17; AF 5.10^7+SAP, n=15; b) AF 1.10^7, n=7; AF 1.10^7+SAP, n=8; c) AF 5.10^6, n=8; AF 5.10^6+SAP, n=10.***, P<0.005 SAP-treated vs. saline (Mantel-Cox test). One-way ANOVA, P<0.0001. d) lung CFU in mice treated with cyclophosphamide and infected with 1.10^7 AF conidia.*, P<0.05 (Mann-Whitney test). e) quantitative analysis of AF viability performed using a resazurin-based assay. Plasma (30%) from wt and Apcs^−/− mice were incubated (1 min) with 1.5×10^5 AF conidia pre-opsonized or not with SAP. Results are mean±SD of red fluorescence (excitation/emission 535/580-610 nm) intensity of the resazurin once reduced to resorufin within viable cells. Effect of Posaconazole (POC; 1 μM) exposure is also shown. Results are mean±SEM relative to the condition without serum (grey symbols) of two experiments performed with n=10 mice/group. […] AF viability assay performed in sera depleted from complement components. Figure summarizes one experiment out of 5 also conducted with serum 10%. Mean±SD.*, P<0.05; **, P<0.01 (unpaired t-test). g) and h) FACS analysis of MAC deposition on AF conidia (1×10^7) in presence of sera depleted from complement components (e) and the effect of SAP (f). Mean±SEM of 2 experiments performed out of 4. e, f,*, P<0.05;**, P<0.01;***, P<0.005;****, P<0.001; (Mann-Whitney test).\nFIG. 13 depicts the therapeutic efficacy of SAP in treatment of invasive aspergillosis alone or in combination with posaconazole. Survival of transiently cyclophosphamide-immunosuppressed mice after injection with 5×10^7 conidia. Human SAP (4 mg/Kg) and Posaconazole (POS; 1.6 mg/Kg) were injected at 16 h and 40 h after infection. AF 5.10^7+ saline, n=9; AF 5.10^7+SAP, n=8; AF 5.10^7+POS, n=9; AF 5.10^7+SAP+POS, n=8. P<0.01, saline vs. hSAP; P<0.005, saline vs. POS; P<0.0005, saline vs. hSAP+POS; P<0.05, POS vs. hSAP+POS; (Mantel-Cox test).\nThe growth and culture conditions of A. fumigatus and A. Flavus conidia were as described (Garlanda et al., 2002). For intratracheal (i.t.) injection, mice were anesthetized by i.p. injection of ketamine (100 mg/Kg; i.p.) and xylazine (10 mg/Kg i.p.). After surgical exposure, a volume of 50 μl PBS^2+, pH 7.4, containing 1×10^8 or 5×10^7 resting conidia (>95% viable, as determined by serial dilution and plating of the inoculum on Sabouraud dextrose agar) were delivered into trachea under direct vision using a catheter connected to the outlet of a micro-syringe (Terumo, Belgium). Survival to infection was daily monitored for 10d later. Dying mice were euthanized after evaluation of the following clinical parameters: body temperature dropping, intermittent respiration, solitude presence, sphere posture, fur erection, non-responsive alertness, and inability to ascent when induced.\nIn therapy experiments, immunosuppression was induced by i.p. injection of 150 mg/Kg cyclophosphamide (150μl per mouse of 20 mg/ml solution) 2d before infection. Native human SAP (Merck-Millipore) was dialysed in PBS (pH 7.4) in order to eliminate sodium azide and i.p. injected at the dose of 4 mg/Kg at 2 and 24 h after infection or in combination with Posaconazole (POS; 1.6 mg/Kg) at 16 h and 40 h after infection.\nLung homogenates and analysis. Lungs were removed 16 h after infection and homogenized in 1 ml PBS, pH 7.4, containing 0.01% (vol/vol) Tween-20® (Merck-Millipore) and protease inhibitors. Samples were serially diluted 1:10 in PBS and plated on Sabouraud dextrose agar for blinded CFU counting. […]",
  "data": [
    {"substance": "human native SAP: Native SAP from human serum purchased by Merck-Millipore; Serum Amyloid P component, SEQ ID NO: 1", "values": [
      {"measurement": "MST", "setting": "1×10^7 conidia", "result": "> 10"},
      {"measurement": "survival", "setting": "1×10^7 conidia", "result": 62.5, "unit": "%"},
      {"measurement": "MST", "setting": "5×10^6 conidia", "result": "> 10"},
      {"measurement": "survival", "setting": "5×10^6 conidia", "result": 80, "unit": "%"},
      {"measurement": "MST", "setting": "5×10^7 conidia", "result": 4},
      {"measurement": "survival", "setting": "5×10^7 conidia", "result": 20, "unit": "%"},
      {"measurement": "lung fungal burden, median", "setting": "16 h, 1×10^7 conidia, SAP-treated mice", "result": "2.0×10^6 CFU"},
      {"measurement": "reduction in fungal burden in lung", "setting": "16 h, 1×10^7 conidia, SAP-treated vs. untreated", "result": 12, "unit": "fold"}
    ]}
  ]
}
